Measured values reported in patent US20240174643A1, “SOS1 PROTEIN DEGRADERS, PHARMACEUTICAL COMPOSITIONS THEREOF, AND THEIR THERAPEUTIC APPLICATIONS” (Bio TheryX, Inc., priority 2021, published 2024).

Key:
Assay type in all cases: cell-based
SW48 (wt) cells = test: Cell viability assay (CELLTITER-GLO), SW48 cells; settings: Homo sapiens, 72 h, 3 days at 37° C., CELLTITER-GLO luminescence, read-out: Inhibition of Cancerous Cells IC50 (μM) SW48 (wt)
Protocol: (§1) AsPC-1, 1358, and SW48 cells were cultured in RPMI 1640 media supplemented with 10% fetal bovine serum, streptomycin, and penicillin. Lovo and SW480 cells were cultured in DMEM media supplemented with 10% fetal bovine serum, streptomycin, and penicillin. The cell lines were plated in their respective medium supplemented with 2.5% fetal bovine serum, streptomycin, and penicillin. All cell lines were plated in white walled 96-well plates at 2,000 cells/well or 384-well plates at 500 cells/well, except Lovo, which were plated at 4,000 or 1,000 cells/well, respectively. The cells were incubated in DMSO (control) or a compound for 3 days at 37° C. under 5% CO2. A CELLTITER-GLO® reagent (100 μL) was then added to each well. After a 10 min incubation with shaking, luminescence was measured using an ENVISION® multimode plate reader.

SW480 (G12V) cells = test: Cell viability assay (CELLTITER-GLO), SW480 cells; settings: Homo sapiens, 72 h, 3 days at 37° C., CELLTITER-GLO luminescence, read-out: Inhibition of Cancerous Cells IC50 (μM) SW480 (G12V)
Protocol: as §1

Lovo (G13D) cells = test: Cell viability assay (CELLTITER-GLO), Lovo cells; settings: Homo sapiens, 72 h, 3 days at 37° C., CELLTITER-GLO luminescence, read-out: Inhibition of Cancerous Cells IC50 (μM) Lovo (G13D)
Protocol: as §1

AsPC-1 (G12D) cells = test: Cell viability assay (CELLTITER-GLO), AsPC-1 cells; settings: Homo sapiens, ASPC1, 72 h, 3 days at 37° C., CELLTITER-GLO luminescence, read-out: Inhibition of Cancerous Cells IC50 (μM) AsPC-1 (G12D)
Protocol: as §1

H358 (G12C) cells = test: Cell viability assay (CELLTITER-GLO), H358 cells; settings: Homo sapiens, NCI-H358, 72 h, 3 days at 37° C., CELLTITER-GLO luminescence, read-out: Inhibition of Cancerous Cells IC50 (μM) H358 (G12C)
Protocol: as §1

SMILES	IC50 (SW48 (wt) cells) [µM]	IC50 (SW480 (G12V) cells) [µM]	IC50 (Lovo (G13D) cells) [µM]	IC50 (AsPC-1 (G12D) cells) [µM]	IC50 (H358 (G12C) cells) [µM]
COc1cc2c(N[C@H](C)c3cccc(Br)c3)nc(C)nc2cc1OCCCCCN1CCN(C(=O)CNc2ccc(C3CCC(=O)NC3=O)cc2)CC1 (stereo partly drawn) [Compound B8, 3-(4-((2-(4-(5-((4-(((R)-1-(3-Bromophenyl)ethyl)amino)-6-methoxy-2-methyl-quinazolin-7-yl)oxy)pentyl)piperazin-1-yl)-2-oxoethyl)amino)phenyl)piperidine-2,6-dione]	1.1	1.1	1.3	2.8	1.7
COc1cc2c(N[C@H](C)c3cccc(Br)c3)nc(C)nc2cc1OCCCCCCCCCN1CCN(C(=O)CNc2ccc3c(N4CCC(=O)NC4=O)nn(C)c3c2)CC1 [Compound D8, (R)-1-(6-((2-(4-(9-((4-((1-(3-Bromophenyl)ethyl)amino)-6-methoxy-2-methyl-quinazolin-7-yl)oxy)nonyl)piperazin-1-yl)-2-oxoethyl)amino)-1-methyl-1H-indazol-3-yl)-dihydropyrimidine-2,4(1H,3H)-dione]	0.4	0.35	1.2	1.7	6.1
COc1cc2c(N[C@H](C)c3cccc(Br)c3)nc(C)nc2cc1OCCCCCCCCCCCN1CCN(C(=O)CNc2cccc3c(N4CCC(=O)NC4=O)nn(C)c23)CC1 [Compound D10, (R)-1-(7-((2-(4-(11-((4-((1-(3-Bromophenyl)ethyl)amino)-6-methoxy-2-methyl-quinazolin-7-yl)oxy)undecyl)piperazin-1-yl)-2-oxoethyl)amino)-1-methyl-1H-indazol-3-yl)-dihydropyrimidine-2,4(1H,3H)-dione]	> 10	1.2	1.4	> 10	> 10
COc1cc2nc(C)nc(N[C@H](C)c3cccc(Br)c3)c2cc1OC [reference compound]	3.6	3.4	2.5	5.1	3.2

Second part, the compound after the results:

IC50 (SW48 (wt) cells) [µM]	IC50 (SW480 (G12V) cells) [µM]	IC50 (Lovo (G13D) cells) [µM]	IC50 (AsPC-1 (G12D) cells) [µM]	IC50 (H358 (G12C) cells) [µM]	SMILES
2	0.57	0.63	1.5	1.9	COc1cc2c(N[C@H](C)c3cccc(Br)c3)nc(C)nc2cc1OCCCCCCCCCN1CCN(C(=O)COc2cccc(N3CCC(=O)NC3=O)c2)CC1 [Compound C5, (R)-1-(3-(2-(4-(9-((4-((1-(3-Bromophenyl)ethyl)amino)-6-methoxy-2-methyl-quinazolin-7-yl)oxy)nonyl)piperazin-1-yl)-2-oxoethoxy)phenyl)dihydropyrimidine-2,4(1H,3H)-dione]
2.1	0.66	0.93	2.1	3.4	COc1cc2c(N[C@H](C)c3cccc(Br)c3)nc(C)nc2cc1OCCCCCCCCCCCN1CCN(C(=O)COc2ccc(N3CCC(=O)NC3=O)cc2)CC1 [Compound C3, (R)-1-(4-(2-(4-(11-((4-((1-(3-Bromophenyl)ethyl)amino)-6-methoxy-2-methyl-quinazolin-7-yl)oxy)undecyl)piperazin-1-yl)-2-oxoethoxy)phenyl)dihydropyrimidine-2,4(1H,3H)-dione]
1.6	0.66	0.55	1.6	1.4	COc1cc2c(N[C@H](C)c3cccc(Br)c3)nc(C)nc2cc1OCCCCCCCCCN1CCN(C(=O)COc2ccc(N3CCC(=O)NC3=O)cc2)CC1 [Compound C2, (R)-1-(4-(2-(4-(9-((4-((1-(3-Bromophenyl)ethyl)amino)-6-methoxy-2-methyl-quinazolin-7-yl)oxy)nonyl)piperazin-1-yl)-2-oxoethoxy)phenyl)dihydropyrimidine-2,4(1H,3H)-dione]
